In ChEMBL document CHEMBL5500384, “New synergistic benzoquinone scaffolds as inhibitors of mycobacterial cytochrome bc1 complex to treat multi-drug resistant tuberculosis” (Eur J Med Chem, 2024):

How the values were obtained:
[1] = system: Mycolicibacterium smegmatis; experiment: Antibacterial activity against Mycobacterium smegmatis ATCC 14468 assessed as log2 fold change in histidine kinase expression at 3 ug/ml incubated for 12 hrs by mass spectrometric analysis; assay type: functional; conditions: dose 3 µg/ml
[2] = system: Mycolicibacterium smegmatis; experiment: Antibacterial activity against Mycobacterium smegmatis ATCC 14468 assessed as log2 fold change in dihydroorotate dehydrogenase expression at 3 ug/ml incubated for 12 hrs by mass spectrometric analysis; assay type: functional; conditions: dose 3 µg/ml
[3] = Cytotoxicity against african green monkey Vero cells assessed as cell viability at 6.25 ug/ml by MTT assay; assay type: toxicity, cell-based; conditions: chlorocebus sabaeus, at 6.25 µg/mL, read-out: Activity
[4] = system: Mycolicibacterium smegmatis; experiment: Antibacterial activity against Mycobacterium smegmatis ATCC 14468 assessed as log2 fold change in TnpC protein expression at 3 ug/ml incubated for 12 hrs by mass spectrometric analysis; assay type: functional; conditions: dose 3 µg/ml
[5] = system: Mycolicibacterium smegmatis; experiment: Antibacterial activity against Mycobacterium smegmatis ATCC 14468 assessed as log2 fold change in citrate transporter expression at 3 ug/ml incubated for 12 hrs by mass spectrometric analysis; assay type: functional; conditions: dose 3 µg/ml
[6] = system: Mycolicibacterium smegmatis; experiment: Antibacterial activity against Mycobacterium smegmatis ATCC 14468 assessed as log2 fold change in signal transduction histidine kinase expression at 3 ug/ml incubated for 12 hrs by mass spectrometric analysis; assay type: functional; conditions: dose 3 µg/ml
[7] = Acute toxicity in Albino mouse assessed as change in ESR at 50 to 2000 mg/kg, po measured after 14 days (reference value: 10 millimeter); assay type: organism-based; conditions: in vivo, 336 h, dose 50-2000 mg/kg, time 14 day
[8] = Hepatotoxicity in Albino mouse assessed as change in portal vein at 50 to 2000 mg/kg, po measured after 14 days; assay type: toxicity, organism-based; conditions: in vivo, 336 h, dose 50-2000 mg/kg, time 14 day
[9] = Renal toxicity in Albino mouse assessed as change in proximal convoluted tubules at 50 to 2000 mg/kg, po measured after 14 days; assay type: organism-based; conditions: in vivo, 336 h, dose 50-2000 mg/kg, time 14 day
[10] = system: Mycolicibacterium smegmatis; experiment: Antibacterial activity against Mycobacterium smegmatis ATCC 14468 assessed as log2 fold change in cytochrome P450 107B1 expression at 3 ug/ml incubated for 12 hrs by mass spectrometric analysis; assay type: functional; conditions: dose 3 µg/ml
[11] = Pulmonary toxicity in Albino mouse assessed as change in alveolar sacs at 50 to 2000 mg/kg, po measured after 14 days; assay type: organism-based; conditions: in vivo, 336 h, dose 50-2000 mg/kg, time 14 day
[12] = system: Mycolicibacterium smegmatis; experiment: Antibacterial activity against Mycobacterium smegmatis ATCC 14468 assessed as log2 fold change in l-Glutathione oxidized metabolite level by mass spectrometry analysis; assay type: functional
[13] = system: Mycolicibacterium smegmatis; experiment: Antibacterial activity against Mycobacterium smegmatis ATCC 14468 assessed as reduction in bacterial growth at 12 ug/ml incubated for 48 hrs by spectrometry analysis; assay type: functional; parameters: scale not given: the % may be the effect or the level left; conditions: dose 12 µg/ml
[14] = system: Mycolicibacterium smegmatis; experiment: Antibacterial activity against Mycobacterium smegmatis ATCC 14468 assessed as log2 fold change in PknH_C domain-containing protein expression at 3 ug/ml incubated for 12 hrs by mass spectrometric analysis; assay type: functional; conditions: dose 3 µg/ml
[15] = Pulmonary toxicity in Albino mouse assessed as change in squamous pneumocytes at 50 to 2000 mg/kg, po measured after 14 days; assay type: organism-based; conditions: in vivo, 336 h, dose 50-2000 mg/kg, time 14 day
[16] = Renal toxicity in Albino mouse assessed as change in renal tubules at 50 to 2000 mg/kg, po measured after 14 days; assay type: organism-based; conditions: in vivo, 336 h, dose 50-2000 mg/kg, time 14 day
[17] = Cytotoxicity against african green monkey Vero cells assessed as cell viability at 100 ug/ml by MTT assay; assay type: toxicity, cell-based; conditions: chlorocebus sabaeus, at 100 µg/mL, read-out: Activity
[18] = Acute toxicity in Albino mouse assessed as change in SGOT count at 50 to 2000 mg/kg, po measured after 14 days (reference value: 42 IU/L); assay type: organism-based; conditions: in vivo, 336 h, dose 50-2000 mg/kg, time 14 day
[19] = Acute toxicity in Albino mouse assessed as change in eosinophils at 50 to 2000 mg/kg, po measured after 14 days (reference value: 3%); assay type: organism-based; conditions: in vivo, 336 h, dose 50-2000 mg/kg, time 14 day
[20] = Cytotoxicity against african green monkey Vero cells assessed as cell viability at 25 ug/ml by MTT assay; assay type: toxicity, cell-based; conditions: chlorocebus sabaeus, at 25 µg/mL, read-out: Activity
[21] = Hepatotoxicity in Albino mouse assessed as change in bile duct at 50 to 2000 mg/kg, po measured after 14 days; assay type: toxicity, organism-based, Liver; conditions: in vivo, 336 h, dose 50-2000 mg/kg, time 14 day
[22] = system: Mycolicibacterium smegmatis; experiment: Antibacterial activity against Mycobacterium smegmatis ATCC 14468 assessed as log2 fold change in l-tyrosine metabolite level by mass spectrometry analysis; assay type: functional
[23] = Acute toxicity in Albino mouse assessed as change in SGPT count at 50 to 2000 mg/kg, po measured after 14 days (reference value: 52 IU/L); assay type: organism-based; conditions: in vivo, 336 h, dose 50-2000 mg/kg, time 14 day
[24] = system: Mycolicibacterium smegmatis; experiment: Antibacterial activity against Mycobacterium smegmatis ATCC 14468 assessed as log2 fold change in l-Glutamic acid metabolite level by mass spectrometry analysis; assay type: functional
[25] = Pulmonary toxicity in Albino mouse assessed as change in bronchi structure at 50 to 2000 mg/kg, po measured after 14 days; assay type: organism-based; conditions: in vivo, 336 h, dose 50-2000 mg/kg, time 14 day
[26] = Pulmonary toxicity in Albino mouse assessed as appearance of goblet cells at 50 to 2000 mg/kg, po measured after 14 days; assay type: organism-based; conditions: in vivo, 336 h, dose 50-2000 mg/kg, time 14 day
[27] = system: Mycolicibacterium smegmatis; experiment: Antibacterial activity against Mycobacterium smegmatis ATCC 14468 assessed as log2 fold change in TrkA expression at 3 ug/ml incubated for 12 hrs by mass spectrometric analysis; assay type: functional; conditions: dose 3 µg/ml
[28] = Acute toxicity in Albino mouse assessed as change in neutrophils at 50 to 2000 mg/kg, po measured after 14 days (reference value: 75%); assay type: organism-based; conditions: in vivo, 336 h, dose 50-2000 mg/kg, time 14 day
[29] = Acute toxicity in Albino mouse assessed as change in serum urea level at 50 to 2000 mg/kg, po measured after 14 days (reference value: 46 mg/dl); assay type: organism-based; conditions: in vivo, 336 h, dose 50-2000 mg/kg, time 14 day
[30] = Renal toxicity in Albino mouse assessed as change in distal convoluted tubules at 50 to 2000 mg/kg, po measured after 14 days; assay type: organism-based; conditions: in vivo, 336 h, dose 50-2000 mg/kg, time 14 day
[31] = Acute toxicity in Albino mouse assessed as change in monocytes at 50 to 2000 mg/kg, po measured after 14 days (reference value: 1%); assay type: organism-based; conditions: in vivo, 336 h, dose 50-2000 mg/kg, time 14 day
[32] = system: Mycolicibacterium smegmatis; experiment: Antibacterial activity against Mycobacterium smegmatis ATCC 14468 assessed as log2 fold change in NADH-quinone oxidoreductase subunit C expression at 3 ug/ml incubated for 12 hrs by mass spectrometric analysis; assay type: functional; conditions: dose 3 µg/ml
[33] = system: Mycolicibacterium smegmatis; experiment: Antibacterial activity against Mycobacterium smegmatis ATCC 14468 assessed as log2 fold change in MscS expression at 3 ug/ml incubated for 12 hrs by mass spectrometric analysis; assay type: functional; conditions: dose 3 µg/ml
[34] = Renal toxicity in Albino mouse assessed as extravasation of RBC at 50 to 2000 mg/kg, po measured after 14 days; assay type: organism-based, Erythrocyte; conditions: in vivo, 336 h, dose 50-2000 mg/kg, time 14 day
[35] = Cytotoxicity against african green monkey Vero cells assessed as cell viability at 12.5 ug/ml by MTT assay; assay type: toxicity, cell-based; conditions: chlorocebus sabaeus, at 12.5 µg/mL, read-out: Activity
[36] = system: Mycolicibacterium smegmatis; experiment: Antibacterial activity against Mycobacterium smegmatis ATCC 14468 assessed as log2 fold change in N-Acetyl-l-glutamic acid metabolite level by mass spectrometry analysis; assay type: functional
[37] = system: Mycolicibacterium smegmatis; experiment: Antibacterial activity against Mycobacterium smegmatis ATCC 14468 assessed as log2 fold change in cytochrome bc1 complex Rieske-iron-sulfur subunit expression at 3 ug/ml incubated for 12 hrs by mass spectrometric analysis; assay type: functional; conditions: dose 3 µg/ml
[38] = system: Mycolicibacterium smegmatis; experiment: Antibacterial activity against Mycobacterium smegmatis ATCC 14468 assessed as log2 fold change in 24-methylenecholesterol metabolite level by mass spectrometry analysis; assay type: functional

Structure (SMILES)	log2FC [1]	log2FC [2]	viability at 6.25 ug/ml [3] [%]	log2FC [4]	log2FC [5]	log2FC [6]	Activity [7] [millimeter/hr]	Activity [8]	Activity [9]	log2FC [10]	Activity [11]	log2FC [12]	Activity [13] [%]	log2FC [14]	Activity [15]	Activity [16]	viability at 100 ug/ml [17] [%]	Activity [18] [IU/L]	Activity [19] [%]	viability at 25 ug/ml [20] [%]	other results
COc1ccc(C2C(Cl)C(=O)N2C2=C(Cl)C(=O)c3ccccc3C2=O)cc1 (stereo unspecified)	-6.64	-1.89	100	-6.64	-1.76	-6.64	15	Non-Toxic	Non-Toxic	6.64	Non-Toxic	-1.04	80	-6.64	Non-Toxic	Non-Toxic	0.7	95	4	37.6	Activity [21]: Non-Toxic; log2FC [22]: -1.68; Activity [23]: 64 IU/L; log2FC [24]: -1.49; Activity [25]: Non-Toxic; Activity [26]: Non-Toxic; log2FC [27]: -6.64; Activity [28]: 62%; Activity [29]: 50 mg/dL; Activity [30]: Non-Toxic; Activity [31]: 1%; log2FC [32]: -1.9; log2FC [33]: -2.45; Activity [34]: Non-Toxic; viability at 12.5 ug/ml [35]: 68.1%; log2FC [36]: -1.34; log2FC [37]: 1.4; log2FC [38]: 1.74
O=C1C(Cl)=C(Cl)C(=O)c2ccccc21 [Dichlon]	-6.64	-1.92	100	-2.19	-3.36	-6.64	20	Non-Toxic	Non-Toxic	6.64	Non-Toxic	-2.01	80	-6.64	Non-Toxic	Non-Toxic	28.7	29	3	67.1	Activity [21]: Non-Toxic; log2FC [22]: -1.18; Activity [23]: 17 IU/L; log2FC [24]: -1.59; Activity [25]: Non-Toxic; Activity [26]: Non-Toxic; log2FC [27]: -6.64; Activity [28]: 43%; Activity [29]: 51 mg/dL; Activity [30]: Non-Toxic; Activity [31]: 1%; log2FC [32]: -2.08; log2FC [33]: -4.39; Activity [34]: Non-Toxic; viability at 12.5 ug/ml [35]: 100%; log2FC [36]: -0.61; log2FC [37]: 6.64; log2FC [38]: 2.01
